{
  "source": "ChEMBL document CHEMBL3046246",
  "about": "“Synthesis of spirothiohydantoin analogues of hydantocidin” (1995)",
  "assay_type_in_all_cases": "functional",
  "conditions_in_all_cases": "240 h, read-out: GI",
  "key": {"[1]": {"test_system": "Ambrosia artemisiifolia", "assay": "Herbicidal activity against three-leaf stage Ambrosia artemisiifolia (ragweed) assessed as plant growth inhibition at 1000 ppm applied through foliar spraying measured after 10 days post compound treatment relative to untreated control"}, "[2]": {"test_system": "Ipomoea purpurea", "assay": "Herbicidal activity against 3-leaf stage tall Ipomoea purpurea (common morning-glory) assessed as plant growth inhibition at 1000 ppm applied through foliar spraying measured after 10 days post compound treatment relative to untreated control"}, "[3]": {"test_system": "Abutilon theophrasti", "assay": "Herbicidal activity against three-leaf stage Abutilon theophrasti (velvetleaf) assessed as plant growth inhibition at 1000 ppm applied through foliar spraying measured after 10 days post compound treatment relative to untreated control"}, "[4]": {"test_system": "Xanthium strumarium", "assay": "Herbicidal activity against three-leaf stage Xanthium strumarium (cocklebur) assessed as plant growth inhibition at 1000 ppm applied through foliar spraying measured after 10 days post compound treatment relative to untreated control"}, "[5]": {"test_system": "Solanum nigrum", "assay": "Herbicidal activity against three-leaf stage Solanum nigrum (black nightshade) assessed as plant growth inhibition at 1000 ppm applied through foliar spraying measured after 10 days post compound treatment relative to untreated control"}, "[6]": {"test_system": "Sorghum halepense", "assay": "Herbicidal activity against three-leaf stage Sorghum halepense (Johnson grass) assessed as plant growth inhibition at 1000 ppm applied through foliar spraying measured after 10 days post compound treatment relative to untreated control"}, "[7]": {"test_system": "Setaria viridis", "assay": "Herbicidal activity against three-leaf stage Setaria viridis (green foxtail) assessed as plant growth inhibition at 1000 ppm applied through foliar spraying measured after 10 days post compound treatment relative to untreated control"}, "[8]": {"test_system": "Panicum dichotomiflorum", "assay": "Herbicidal activity against three-leaf stage Panicum dichotomiflorum assessed as plant growth inhibition at 1000 ppm applied through foliar spraying measured after 10 days post compound treatment relative to untreated control"}, "[9]": {"test_system": "Digitaria sanguinalis", "assay": "Herbicidal activity against three-leaf stage Digitaria sanguinalis (hairy crabgrass) assessed as plant growth inhibition at 1000 ppm applied through foliar spraying measured after 10 days post compound treatment relative to untreated control"}, "[10]": {"test_system": "Echinochloa crus-galli", "assay": "Herbicidal activity against three-leaf stage Echinochloa crus-galli (barnyard grass) assessed as plant growth inhibition at 1000 ppm applied through foliar spraying measured after 10 days post compound treatment relative to untreated control"}},
  "data": [
    {"smiles": "O=C1NC(=S)N[C@]12O[C@H](CO)[C@@H](O)[C@H]2O", "values": [
      {"measurement": "inhibition of growth at 1000 ppm", "setting": "[1]", "result": 80, "unit": "%"},
      {"measurement": "inhibition of growth at 1000 ppm", "setting": "[2]", "result": 80, "unit": "%"},
      {"measurement": "inhibition of growth at 1000 ppm", "setting": "[3]", "result": 80, "unit": "%"},
      {"measurement": "inhibition of growth at 1000 ppm", "setting": "[4]", "result": 95, "unit": "%"},
      {"measurement": "inhibition of growth at 1000 ppm", "setting": "[5]", "result": 80, "unit": "%"},
      {"measurement": "inhibition of growth at 1000 ppm", "setting": "[6]", "result": 95, "unit": "%"},
      {"measurement": "inhibition of growth at 1000 ppm", "setting": "[7]", "result": 95, "unit": "%"},
      {"measurement": "inhibition of growth at 1000 ppm", "setting": "[8]", "result": 80, "unit": "%"},
      {"measurement": "inhibition of growth at 1000 ppm", "setting": "[9]", "result": 95, "unit": "%"},
      {"measurement": "inhibition of growth at 1000 ppm", "setting": "[10]", "result": 95, "unit": "%"}
    ]},
    {"smiles": "O=C1NC(=S)N[C@@]12O[C@H](CO)[C@@H](O)[C@H]2O", "values": [
      {"measurement": "inhibition of growth at 1000 ppm", "setting": "[1]", "result": 95, "unit": "%"},
      {"measurement": "inhibition of growth at 1000 ppm", "setting": "[2]", "result": 95, "unit": "%"},
      {"measurement": "inhibition of growth at 1000 ppm", "setting": "[3]", "result": 95, "unit": "%"},
      {"measurement": "inhibition of growth at 1000 ppm", "setting": "[4]", "result": 95, "unit": "%"},
      {"measurement": "inhibition of growth at 1000 ppm", "setting": "[5]", "result": 95, "unit": "%"},
      {"measurement": "inhibition of growth at 1000 ppm", "setting": "[6]", "result": 95, "unit": "%"},
      {"measurement": "inhibition of growth at 1000 ppm", "setting": "[7]", "result": 95, "unit": "%"},
      {"measurement": "inhibition of growth at 1000 ppm", "setting": "[8]", "result": 80, "unit": "%"},
      {"measurement": "inhibition of growth at 1000 ppm", "setting": "[9]", "result": 95, "unit": "%"},
      {"measurement": "inhibition of growth at 1000 ppm", "setting": "[10]", "result": 95, "unit": "%"}
    ]},
    {"smiles": "O=C1NC(=O)[C@@]2(N1)O[C@H](CO)[C@@H](O)[C@H]2O", "note": "[HYDANTOCIDIN]", "values": [
      {"measurement": "inhibition of growth at 1000 ppm", "setting": "[1]", "result": 95, "unit": "%"},
      {"measurement": "inhibition of growth at 1000 ppm", "setting": "[2]", "result": 95, "unit": "%"},
      {"measurement": "inhibition of growth at 1000 ppm", "setting": "[3]", "result": 95, "unit": "%"},
      {"measurement": "inhibition of growth at 1000 ppm", "setting": "[4]", "result": 95, "unit": "%"},
      {"measurement": "inhibition of growth at 1000 ppm", "setting": "[5]", "result": 95, "unit": "%"},
      {"measurement": "inhibition of growth at 1000 ppm", "setting": "[6]", "result": 95, "unit": "%"},
      {"measurement": "inhibition of growth at 1000 ppm", "setting": "[7]", "result": 95, "unit": "%"},
      {"measurement": "inhibition of growth at 1000 ppm", "setting": "[8]", "result": 95, "unit": "%"},
      {"measurement": "inhibition of growth at 1000 ppm", "setting": "[9]", "result": 95, "unit": "%"},
      {"measurement": "inhibition of growth at 1000 ppm", "setting": "[10]", "result": 95, "unit": "%"}
    ]},
    {"smiles": "O=C1NC(=O)[C@]2(N1)O[C@H](CO)[C@@H](O)[C@H]2O", "note": "[HYDANTOCIDIN]", "values": [
      {"measurement": "inhibition of growth at 1000 ppm", "setting": "[2]", "result": 30, "unit": "%"},
      {"measurement": "inhibition of growth at 1000 ppm", "setting": "[3]", "result": 80, "unit": "%"},
      {"measurement": "inhibition of growth at 1000 ppm", "setting": "[4]", "result": 80, "unit": "%"},
      {"measurement": "inhibition of growth at 1000 ppm", "setting": "[5]", "result": 50, "unit": "%"},
      {"measurement": "inhibition of growth at 1000 ppm", "setting": "[6]", "result": 0, "unit": "%"},
      {"measurement": "inhibition of growth at 1000 ppm", "setting": "[7]", "result": 80, "unit": "%"},
      {"measurement": "inhibition of growth at 1000 ppm", "setting": "[8]", "result": 80, "unit": "%"},
      {"measurement": "inhibition of growth at 1000 ppm", "setting": "[9]", "result": 80, "unit": "%"},
      {"measurement": "inhibition of growth at 1000 ppm", "setting": "[10]", "result": 10, "unit": "%"}
    ]}
  ]
}
